{
  "source": "patent US20100035943A1",
  "about": "“Oxa-and thiadiazoles and their use as metalloproteinase inhibitors” (VERNALIS (OXFORD) LTD, priority 2002, published 2010)",
  "key": {"metalloelastase (MMP12)": {"molecular_target": "metalloelastase (MMP12) (Homo sapiens, UniProt P39900)", "sequence (P39900 106-470)": "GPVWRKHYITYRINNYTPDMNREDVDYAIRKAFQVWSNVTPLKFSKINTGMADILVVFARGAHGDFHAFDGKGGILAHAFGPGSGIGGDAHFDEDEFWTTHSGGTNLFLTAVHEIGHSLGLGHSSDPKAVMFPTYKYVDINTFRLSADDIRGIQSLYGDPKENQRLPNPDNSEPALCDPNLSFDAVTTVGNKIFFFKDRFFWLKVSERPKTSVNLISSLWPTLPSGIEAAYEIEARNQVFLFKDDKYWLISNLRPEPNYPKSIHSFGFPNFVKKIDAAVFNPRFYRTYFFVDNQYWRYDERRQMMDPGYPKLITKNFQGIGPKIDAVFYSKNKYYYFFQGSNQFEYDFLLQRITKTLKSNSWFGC", "experiment": "MMP12 enzyme inhibition assay (fluorogenic peptide substrate McaPLGLDpaAR)", "format": "biochemical", "conditions": "protocol as for MMP9 assay"}, "[1]": {"system": "CCl4-induced liver fibrosis", "experiment": "CCl4-induced liver fibrosis model", "format": "in vivo, Male Sprague-Dawley rats", "conditions": "rat, CCl4 i.p.", "description": "Carbon tetrachloride (CCl4) induces liver fibrosis when administered intraperitoneally (Bulbena O, Culat J, Bravo M L., Inflammation 1997 October; 21(5):475-88). Compounds of the invention can be evaluated for their ability to prevent the CCl4-induced formation of fibrotic tissue. Male Sprague-Dawley rats, 7 weeks old, weight approx. 300 g from Charles River/Iffa-Crédo, St-Germain/l'Arbresle, France. The study involved the following groups of 8 animals each, as indicated below. Group 1: “Sham” animals received CCl4 vehicle (i.p.) and once daily, the vehicle of test substance (s.c.) Group 2: Positive control group received CCl4 (i.p.), and once daily, the vehicle of the test substance (s.c.) Group 3: Experimental group received CCl4 (i.p.), and once daily, 2 mg/kg s.c. of the compound of Example 13. Group 4: Experimental group received CCl4 (i.p.), and once daily, 10 mg/kg s.c. of the compound of Example 13. Group 5: Experimental group received CCl4 (i.p.) and once daily, 20 mg/kg s.c. of the compound of Example 13. CCl4 (Prolabo) in olive oil was administered every 3 days for three weeks by intraperitoneal injection (0,25 ml CCl4/kg body weight, diluted in oil 1:1 vol:vol for a total volume of 0.5 ml/kg). Animals were weighed daily. If body weight decreased by more than 10% of the initial weight, the animal was excluded from the study. Vehicles and compound were used as follows: • CCl4 was administered in olive oil (prolabo) at a 1:1 dilution; • The compound of Example 13 was suspended in 0.25% Tween-80 and 0.25% carboxymethylcellulose in sterile 0.9% NaCl. The solution was kept at 4° C. throughout the experiment and used each day to prepare the suspensions. The compound of Example 13 was administered daily by subcutaneous (s.c.) injection at a volume of administration of 5 ml/kg. Groups 1 and 2 were dosed s.c. with 5 ml/kg of vehicle. Freshly prepared solutions were used on each day of the experiment. […] Plasma aspartate amino transferase (ASAT) and alanine amino transferase (ALAT) levels were measured in order to assess liver necrosis. […]"}, "[2]": {"conditions": "compound s.c. once daily 2, 10, 20 mg/kg for 21 days, compared to vehicle (FIG. 1)"}},
  "data": [
    {"compound": "CC(C)C[C@@H](C(=O)N[C@H](c1noc(-c2cccs2)n1)C(C)(C)C)[C@H](O)C(=O)NO", "note": "[Example 13, 2S-Hydroxy-3R-[1S-(5-thiophen-2-yl-[1,2,4]oxadiazol-3-yl)-2,2-dimethyl-propylcarbamoyl]-5-methyl Hexanohydroxamic Acid]", "values": [
      {"measurement": "IC50", "setting": "metalloelastase (MMP12)", "value": "< 100", "unit": "nM"},
      {"measurement": "Plasma alanine amino transferase (ALAT) level", "setting": "[1]; [2]", "value": "clearly decreases"},
      {"measurement": "Plasma aspartate amino transferase (ASAT) level", "setting": "[1]; [2]", "value": "clearly decreases"},
      {"measurement": "Effect on the liver", "setting": "[1]; compound s.c. once daily, conclusion from ASAT and ALAT levels", "value": "protective effect on the liver"}
    ]}
  ]
}
